Data: patent publication US12497411B2, “Muscarinic acetylcholine receptor subtype 4 antagonists in the treatment of anemia” (COLD SPRING HARBOR LABORATORY, priority 2019, dated 2025)
pKi: −log10 of the molar value. Counter-ions that a name gives are not always drawn.

How the values were obtained:
Mouse BFU-Es = assay: Primary mouse BFU-E culture assay (cell expansion); type: cell-based; conditions: for potency in stimulating BFU-E expansion: mouse primary cell BFU-E culture assay
Method: Primary mouse BFU-Es were isolated from mouse embryonic day 14.5 (E14.5) fetal liver and cultured in StemSpan serum-free expansion medium, and the numbers of cells formed were counted during culture. BFU-Es were infected with either viruses encoding control shRNA or viruses encoding shRNAs targeting Chrm4, and numbers of GFP+ cells formed during culture were counted. DMSO or 25 mg/kg oxyphenonium bromide was intraperitoneally injected into the hemolysis mouse model, Mx1-cre Srsf2 P95H/WT MDS mouse model, and aging mouse model. Complete blood count (CBC) was performed after compound injection. CREB ChIP-Seq was performed on BFU-Es after culture with 100 μM oxyphenonium bromide for 45 minutes. RNA-Seq was performed in BFU-Es after being cultured with DMSO or oxyphenonium bromide for 3 days.
BFU-Es were isolated from mouse embryonic day 14.5 fetal liver using fluorescence-activated cell sorting (FACS) method previously described (Flygare et al., Blood 117, 3435-3444 (2011)). BFU-Es were cultured in StemSpan SFEM II medium containing rmSCF (100 ng/ml), EPO (2 U/ml), rmIGF-1 (40 ng/ml), dexamethasone (1 nmol/ml or 10 nmol/ml), oxyphenonium bromide ([…]), and orphenadrine citrate (1 μmol/ml).
BFU-Es were isolated from mouse embryonic day 14.5 fetal liver using fluorescence-activated cell sorting (FACS) method. BFU-Es were cultured in StemSpan SFEM II medium containing rmSCF (100 ng/ml), EPO (2 U/ml), rmIGF-1 (40 ng/ml), dexamethasone (1 nM), together with either DMSO, PCS1055 (5 nM), or PD102807 (3 nM). Numbers of cell formed were counted during in vitro culture.
FIGS. 7 and 8 show the results of the primary BFU-E culture assay. […] Highly purified BFU-Es were isolated as lin-Ter-119-CD16/CD32-Sca-1-CD41-c-Kit+CD71/Cd24a^10% low population using the fluorescence-activated cell sorting (FACS) method. BFU-Es were cultured in medium containing rmSCF, EPO, and rmIGF-1, in the presence of PD102807 or Compounds A-K at indicated concentrations.

[1] = test system: PHZ induced hemolytic anemia in C57bl/6 mice; assay: PHZ induced hemolytic anemia mouse model, CBC; type: in vivo; conditions: subcutaneous injection; B 1.5, 3 or 5 mg/kg; I 0.5, 0.7 or 1 mg/kg; 60 mg/kg phenylhydrazine
Method: Animal experiments were conducted in the Cold Spring Harbor Laboratory Animal Shared Resource in accordance with Institutional Animal Care and Use Committee-approved procedures. 4-6 weeks old C57bl/6 mice, purchased from Jackson Laboratory and randomly distributed into compound and control treatment groups, were given through oral delivery of PCS1055 (50 mg/kg or 100 mg/kg) twice per day or PD102807 (50 mg/kg or 100 mg/kg) once per day everyday for 3 days. On day 3, mice were intraperitoneally injected with 60 mg/kg PHZ. Mice were then given through oral delivery of PD102807 (50 mg/kg or 100 mg/kg) once per day every day for 2 days. Peripheral blood samples were collected retro-orbitally on day 6 using heparinized capillary tubes in blood collection tubes with K2-EDTA. CBC was performed using Hemavet 950. […] C57bl/6 mice were injected with 60 mg/kg phenylhydrazine to induce hemolysis. Mice were delivered with either vehicle control or Compound A or B (30 mg/kg or 100 mg/kg). Peripheral blood samples were collected retro-orbitally using heparinized capillary tubes into blood collection tubes with K2-EDTA. Complete blood counting was performed using Hemavet 950. Hematocrit (HCT), red blood cell (RBC) and hemoglobin (Hb) values are shown. […] C57bl/6 mice were injected with 60 mg/kg phenylhydrazine to induce hemolysis. Mice were delivered with subcutaneous injection with either vehicle control or Compound B (1.5 mg/kg, 3 mg/kg, or 5 mg/kg) or I (0.5 mg/kg, 0.7 mg/kg, or 1 mg/kg). Peripheral blood samples were collected retro-orbitally using heparinized capillary tubes into blood collection tubes with K2-EDTA. Complete blood counting was performed using Hemavet 950. Hematocrit (HCT), red blood cell (RBC) and hemoglobin (Hb) values are shown.

CHRM4 = target: T1, CHRM4 (Homo sapiens, UniProt P08173); assay: Radioligand binding assay, CHRM4; parameters: expressed in transfected cells; host or cells: CHO cells (membranes); conditions: [3H]4-DAMP (0.2 nM), CHO cell membranes, 60 minutes at room temperature; read-out: Ki M4
T1 sequence (P08173 1-479): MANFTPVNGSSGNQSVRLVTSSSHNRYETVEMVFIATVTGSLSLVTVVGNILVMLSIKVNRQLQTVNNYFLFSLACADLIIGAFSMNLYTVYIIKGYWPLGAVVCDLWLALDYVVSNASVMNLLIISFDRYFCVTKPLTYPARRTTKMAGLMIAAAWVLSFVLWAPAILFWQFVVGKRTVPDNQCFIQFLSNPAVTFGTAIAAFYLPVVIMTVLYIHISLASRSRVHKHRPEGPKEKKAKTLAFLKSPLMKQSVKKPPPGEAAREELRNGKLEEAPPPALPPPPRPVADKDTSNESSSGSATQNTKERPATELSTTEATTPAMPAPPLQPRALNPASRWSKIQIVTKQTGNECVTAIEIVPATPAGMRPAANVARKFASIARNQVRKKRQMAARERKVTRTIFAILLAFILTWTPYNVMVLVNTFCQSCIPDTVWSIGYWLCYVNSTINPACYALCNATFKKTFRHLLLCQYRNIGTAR
Method: (§1) PD102807 and Compounds A-K at concentrations of 1×10^−9 M, 1×10^−8 M, 1×10^−7 M, 1×10^−6 M, and 1×10^−5 M were tested in standard binding assays with radioligands and cell membranes with receptors. Compound binding was calculated as a percent inhibition of the binding of a radioactively labeled ligand specific for each target, and the Ki values were determined. For CHRM1, the binding assay was performed using [^3H]pirenzepine (2 nM) as a radioligand and membranes of CHO cells with human recombinant CHRM1 receptor. The incubation time was 60 minutes at room temperature. For CHRM2, the binding assay was performed using [^3H]AF-DX 384 (2 nM) as a radioligand and membranes of CHO cells with human recombinant CHRM2 receptor. The incubation time was also 60 minutes at room temperature. For CHRM3, the binding assay was performed using [^3H]4-DAMP (0.2 nM) as a radioligand and membranes of CHO cells with human recombinant CHRM3 receptor. The incubation time was also 60 minutes at room temperature. For CHRM4, the binding assay was performed using [^3H]4-DAMP (0.2 nM) as a radioligand and membranes of CHO cells with human recombinant CHRM4 receptor. The incubation time was also 60 minutes at room temperature. For CHRM5, the binding assay was performed using [^3H]4-DAMP (0.3 nM) as a radioligand and membranes of CHO cells with human recombinant CHRM5 receptor. The incubation time was also 60 minutes at room temperature.

[2] = target: T2, human recombinant CHRM3 receptor (Homo sapiens, UniProt P20309); assay: Radioligand binding assay, CHRM3; conditions: [3H]4-DAMP (0.2 nM), CHO cell membranes, 60 minutes at room temperature; read-out: Ki M3
T2 construct: expressed in transfected cells; host or cells: CHO cells (membranes)
T2 sequence (P20309 whole entry): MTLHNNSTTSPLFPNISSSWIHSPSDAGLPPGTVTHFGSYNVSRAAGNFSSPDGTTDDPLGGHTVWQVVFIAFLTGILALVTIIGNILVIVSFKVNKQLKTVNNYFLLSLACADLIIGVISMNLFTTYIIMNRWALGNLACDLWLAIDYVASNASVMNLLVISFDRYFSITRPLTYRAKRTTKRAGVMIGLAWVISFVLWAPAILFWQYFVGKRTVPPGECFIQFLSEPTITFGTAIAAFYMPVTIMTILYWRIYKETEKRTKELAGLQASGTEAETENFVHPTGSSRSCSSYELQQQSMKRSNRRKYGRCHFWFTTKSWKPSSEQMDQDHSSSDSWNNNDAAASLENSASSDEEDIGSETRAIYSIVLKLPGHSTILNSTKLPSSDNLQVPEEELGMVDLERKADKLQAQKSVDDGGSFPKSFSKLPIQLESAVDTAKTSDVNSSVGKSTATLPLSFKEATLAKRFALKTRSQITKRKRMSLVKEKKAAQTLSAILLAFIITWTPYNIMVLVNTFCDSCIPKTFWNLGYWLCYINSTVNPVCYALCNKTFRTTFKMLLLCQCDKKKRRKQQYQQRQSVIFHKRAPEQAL
Method: as §1

[3] = target: T3, human recombinant CHRM1 receptor (Homo sapiens, UniProt P11229); assay: Radioligand binding assay, CHRM1; conditions: [3H]pirenzepine (2 nM), CHO cell membranes, 60 minutes at room temperature; read-out: Ki M1
T3 construct: expressed in transfected cells; host or cells: CHO cells (membranes)
T3 sequence (P11229 1-460): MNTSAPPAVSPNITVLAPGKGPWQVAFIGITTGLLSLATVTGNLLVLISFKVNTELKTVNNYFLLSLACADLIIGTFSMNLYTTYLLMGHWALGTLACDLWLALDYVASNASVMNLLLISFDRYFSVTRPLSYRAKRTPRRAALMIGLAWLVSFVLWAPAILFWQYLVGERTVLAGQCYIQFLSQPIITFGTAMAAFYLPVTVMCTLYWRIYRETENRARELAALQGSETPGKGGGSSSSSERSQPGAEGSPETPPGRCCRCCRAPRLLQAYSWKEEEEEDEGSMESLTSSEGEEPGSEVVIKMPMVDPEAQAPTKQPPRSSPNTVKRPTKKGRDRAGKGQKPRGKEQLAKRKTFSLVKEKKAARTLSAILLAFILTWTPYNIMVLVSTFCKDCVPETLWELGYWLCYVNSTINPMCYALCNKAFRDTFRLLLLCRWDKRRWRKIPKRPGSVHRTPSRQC
Method: as §1

[4] = target: T4, human recombinant CHRM2 receptor (Homo sapiens, UniProt P08172); assay: Radioligand binding assay, CHRM2; conditions: [3H]AF-DX 384 (2 nM), CHO cell membranes, 60 minutes at room temperature; read-out: Ki M2
T4 construct: expressed in transfected cells; host or cells: CHO cells (membranes)
T4 sequence (P08172 1-466): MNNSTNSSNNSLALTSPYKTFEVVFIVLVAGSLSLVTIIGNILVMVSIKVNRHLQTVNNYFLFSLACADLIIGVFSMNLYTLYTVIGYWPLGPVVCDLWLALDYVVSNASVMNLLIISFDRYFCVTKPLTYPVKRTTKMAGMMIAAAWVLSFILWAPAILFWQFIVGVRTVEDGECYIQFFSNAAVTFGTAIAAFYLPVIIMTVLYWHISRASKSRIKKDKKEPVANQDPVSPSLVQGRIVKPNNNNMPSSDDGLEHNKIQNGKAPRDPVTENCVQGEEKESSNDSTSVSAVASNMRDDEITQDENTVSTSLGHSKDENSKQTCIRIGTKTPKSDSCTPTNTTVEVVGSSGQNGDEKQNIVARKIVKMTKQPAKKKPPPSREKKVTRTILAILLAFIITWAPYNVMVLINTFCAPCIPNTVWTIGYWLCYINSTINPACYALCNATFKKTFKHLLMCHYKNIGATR
Method: as §1

[5] = target: T5, human recombinant CHRM5 receptor (Homo sapiens, UniProt P08912); assay: Radioligand binding assay, CHRM5; conditions: [3H]4-DAMP (0.3 nM), CHO cell membranes, 60 minutes at room temperature; read-out: Ki M5
T5 construct: expressed in transfected cells; host or cells: CHO cells (membranes)
T5 sequence (P08912 1-532): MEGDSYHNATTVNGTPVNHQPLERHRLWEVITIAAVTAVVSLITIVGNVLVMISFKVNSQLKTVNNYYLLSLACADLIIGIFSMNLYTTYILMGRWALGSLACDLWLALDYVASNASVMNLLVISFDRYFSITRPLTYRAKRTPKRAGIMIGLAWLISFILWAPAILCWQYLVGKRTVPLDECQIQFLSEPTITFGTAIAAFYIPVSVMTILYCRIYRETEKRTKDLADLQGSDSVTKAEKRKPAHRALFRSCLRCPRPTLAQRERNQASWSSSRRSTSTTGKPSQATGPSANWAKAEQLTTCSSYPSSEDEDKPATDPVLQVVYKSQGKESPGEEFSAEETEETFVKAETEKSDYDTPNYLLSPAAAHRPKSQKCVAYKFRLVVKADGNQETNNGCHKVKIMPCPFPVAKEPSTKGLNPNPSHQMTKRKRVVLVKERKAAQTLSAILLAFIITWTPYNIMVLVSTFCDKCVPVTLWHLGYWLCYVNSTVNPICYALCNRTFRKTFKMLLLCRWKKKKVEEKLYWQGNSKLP
Method: as §1

Row | Structure (SMILES) | potency in stimulating BFU-E expansion (Mouse BFU-Es) | treatment of anemia in vivo (HCT, RBC, Hb) [1] | pKi (CHRM4) | pKi [2] | pKi [3] | pKi [4] | pKi [5] | fold cell expansion (Mouse BFU-Es; 5 μM KT5720 (with 3 nM PD102807), day 9, vs untreated) | BFU-E expansion (test of GPCR agonists and antagonists) (Mouse BFU-Es; mouse BFU-E culture)
1 | CCOC(=O)c1c(C)[nH]c2ccc3c(c12)C[N+]1(C)CCc2cc(OC)ccc2C1O3 (single isomer, unassigned) [Compound B, 1-(ethoxycarbonyl)-9-methoxy-2,13-dimethyl-3,6a,11,12,13,14-hexahydroindolo[4′,5′:5,6][1,3]oxazino[2,3-a]isoquinolin-13-ium Iodide] | slightly less potent than the others | treat anemia in vivo | 5.37 | – | – | – | – | – | –
2 | CCOC(=O)c1c(C)n(C)c2ccc3c(c12)CN1CCc2cc(OC)ccc2C1O3 (centres unmarked) [Compound C, Ethyl 9-methoxy-2,3-dimethyl-3,6a,11,14-tetrahydro-12H-indolo[4′,5′:5,6][1,3]oxazino[2,3-a]isoquinoline-1-carboxylate] | – | – | 8.34 | 6.22 | 5.28 | 6.07 | – | – | –
3 | CCOC(=O)c1c(C)n(C)c2ccc(O)c(CN3CCc4cc(OC)ccc4C3)c12 [Compound D, Ethyl 5-hydroxy-4-((6-methoxy-3,4-dihydroisoquinolin-2(1H)-yl)methyl)-1,2-dimethyl-1H-indole-3-carboxylate] | – | – | 7.38 | 6.13 | 6.55 | 7.23 | – | – | –
4 | CCOC(=O)c1c(C)[nH]c2ccc(OC)c(CN3CCc4cc(OC)ccc4C3)c12 [Compound E, ethyl 5-methoxy-4-((6-methoxy-3,4-dihydroisoquinolin-2(1H)-yl)methyl)-2-methyl-1H-indole-3-carboxylate] | – | – | 5.82 | – | 5.07 | 5.59 | – | – | –
5 | CCOC(=O)c1c(C)n(C)c2cc(C[N+]3(C)CCc4cc(OC)ccc4C3)c(OC)cc12 (centres unmarked) [Compound K] | – | – | 7.27 | 6.40 | 7.27 | 7.00 | 6.01 | – | –
6 | CCOC(=O)c1c(C)n(C)c2ccc(OC)c(CN3CCc4cc(OC)ccc4C3)c12 [F] | slightly less potent than the others | – | 6.02 | 5.41 | – | 5.41 | – | – | –
7 | CCOC(=O)c1c(C)n(C)c2cc(CN3CCc4cc(OC)ccc4C3)c(OC)cc12 [J] | – | – | 8.05 | 5.77 | 5.89 | 6.12 | – | – | –
8 | CCCCCCOC(=O)[C@]1(O)C[C@@H]2O[C@@]1(C)n1c3ccccc3c3c4c(c5c6ccccc6n2c5c31)C(=O)NC4 [KT5720] | – | – | – | – | – | – | – | significantly reduced fold cell expansion | –
9 | Cc1ccccc1C(OCCN(C)C)c1ccccc1 (centres unmarked) [orphenadrine citrate] | – | – | – | – | – | – | – | – | triggered BFU-E expansion
